Where “and” joins values, the source holds several entries; their conditions need not be identical. Identical values can stand only once. ± gives the expanded uncertainty stated by the source.
Assays:
[1] = Molar enthalpy of transition or fusion; settings: Crystal; DSC
[2] = for vapor or sublimation pressure: Closed cell (Static) method; for Normal melting temperature: DTA

COC(=O)c1cccnc1 [3-pyridinecarboxylic acid methyl ester]
Molar enthalpy of transition or fusion [1]: 19.3 ± 0.7 kJ/mol | vapor or sublimation pressure ([2]; 273.23 K, Crystal): 0.000651 ± 9.6e-05 kPa and 0.000658 ± 9.6e-05 kPa | vapor or sublimation pressure ([2]; 278.2 K, Crystal): 0.001228 ± 0.00011 kPa and 0.001214 ± 0.00011 kPa | vapor or sublimation pressure ([2]; 283.18 K, Crystal): 0.002269 ± 0.00013 kPa | vapor or sublimation pressure ([2]; 283.19 K, Crystal): 0.002282 ± 0.00013 kPa and 0.002271 ± 0.00013 kPa | vapor or sublimation pressure ([2]; 288.16 K, Crystal): 0.00406 ± 0.00019 kPa and 0.004076 ± 0.00019 kPa | vapor or sublimation pressure ([2]; 293.16 K, Crystal): 0.007304 ± 0.0003 kPa and 0.007318 ± 0.0003 kPa | vapor or sublimation pressure ([2]; 298.14 K, Crystal): 0.0127 ± 0.00051 kPa | vapor or sublimation pressure ([2]; 298.14 K, Liquid): 0.01819 ± 0.00059 kPa | vapor or sublimation pressure ([2]; 298.15 K, Liquid): 0.01819 ± 0.00059 kPa | vapor or sublimation pressure ([2]; 298.16 K, Crystal): 0.01269 ± 0.00051 kPa | vapor or sublimation pressure ([2]; 303.13 K, Liquid): 0.02715 ± 0.00073 kPa and 0.02712 ± 0.00073 kPa | vapor or sublimation pressure ([2]; 303.14 K, Crystal): 0.0216 ± 0.00065 kPa and 0.02159 ± 0.00065 kPa | vapor or sublimation pressure ([2]; 305.12 K, Liquid): 0.03186 ± 0.0008 kPa | vapor or sublimation pressure ([2]; 305.13 K, Liquid): 0.03188 ± 0.0008 kPa | vapor or sublimation pressure ([2]; 307.11 K, Liquid): 0.03712 ± 0.00088 kPa and 0.03709 ± 0.00088 kPa | vapor or sublimation pressure ([2]; 308.1 K, Crystal): 0.03586 ± 0.00087 kPa | vapor or sublimation pressure ([2]; 308.11 K, Crystal): 0.03587 ± 0.00087 kPa | vapor or sublimation pressure ([2]; 309.1 K, Liquid): 0.0431 ± 0.00098 kPa and 0.04306 ± 0.00098 kPa | vapor or sublimation pressure ([2]; 310.6 K, Crystal): 0.04566 ± 0.001 kPa | vapor or sublimation pressure ([2]; 310.61 K, Crystal): 0.04595 ± 0.001 kPa and 0.04557 ± 0.001 kPa | vapor or sublimation pressure ([2]; 311.07 K, Liquid): 0.0502 ± 0.0011 kPa | vapor or sublimation pressure ([2]; 311.08 K, Liquid): 0.05006 ± 0.0011 kPa | vapor or sublimation pressure ([2]; 313.07 K, Liquid): 0.05817 ± 0.0012 kPa | vapor or sublimation pressure ([2]; 313.08 K, Liquid): 0.05817 ± 0.0012 kPa | vapor or sublimation pressure ([2]; 315.06 K, Liquid): 0.06722 ± 0.0014 kPa | vapor or sublimation pressure ([2]; 315.07 K, Liquid): 0.06704 ± 0.0014 kPa | vapor or sublimation pressure ([2]; 317.04 K, Liquid): 0.07707 ± 0.0015 kPa | vapor or sublimation pressure ([2]; 317.05 K, Liquid): 0.07715 ± 0.0015 kPa | vapor or sublimation pressure ([2]; 318.08 K, Liquid): 0.08317 ± 0.0016 kPa | vapor or sublimation pressure ([2]; 318.11 K, Liquid): 0.0833 ± 0.0016 kPa | vapor or sublimation pressure ([2]; 319.09 K, Liquid): 0.08886 ± 0.0017 kPa | vapor or sublimation pressure ([2]; 321.08 K, Liquid): 0.102 ± 0.0019 kPa and 0.103 ± 0.0019 kPa | vapor or sublimation pressure ([2]; 323.09 K, Liquid): 0.1177 ± 0.0021 kPa | vapor or sublimation pressure ([2]; 324.06 K, Liquid): 0.1247 ± 0.0022 kPa and 0.1246 ± 0.0022 kPa | Normal melting temperature ([2]; Crystal): 39.5 ± 0.4 °C

COC(=O)c1ccccn1 [methyl 2-pyridinecarboxylate]
Molar enthalpy of transition or fusion [1]: 16.8 ± 0.4 kJ/mol | vapor or sublimation pressure ([2]; 273.21 K, Liquid): 0.00051 ± 9.4e-05 kPa and 0.000505 ± 9.4e-05 kPa | vapor or sublimation pressure ([2]; 278.18 K, Liquid): 0.00086 ± 0.0001 kPa and 0.000856 ± 0.0001 kPa | vapor or sublimation pressure ([2]; 278.2 K, Crystal): 0.000582 ± 9.6e-05 kPa and 0.00058 ± 9.6e-05 kPa | vapor or sublimation pressure ([2]; 280.67 K, Crystal): 0.000793 ± 0.0001 kPa | vapor or sublimation pressure ([2]; 280.68 K, Crystal): 0.000794 ± 0.0001 kPa | vapor or sublimation pressure ([2]; 283.15 K, Crystal): 0.001087 ± 0.00011 kPa | vapor or sublimation pressure ([2]; 283.15 K, Liquid): 0.001403 ± 0.00011 kPa | vapor or sublimation pressure ([2]; 283.16 K, Crystal): 0.001086 ± 0.00011 kPa | vapor or sublimation pressure ([2]; 283.16 K, Liquid): 0.001399 ± 0.00011 kPa | vapor or sublimation pressure ([2]; 285.65 K, Crystal): 0.001476 ± 0.00011 kPa and 0.001472 ± 0.00011 kPa | vapor or sublimation pressure ([2]; 288.13 K, Liquid): 0.002242 ± 0.00013 kPa | vapor or sublimation pressure ([2]; 288.14 K, Crystal): 0.001988 ± 0.00013 kPa | vapor or sublimation pressure ([2]; 288.14 K, Liquid): 0.002246 ± 0.00013 kPa | vapor or sublimation pressure ([2]; 288.15 K, Crystal): 0.001989 ± 0.00013 kPa | vapor or sublimation pressure ([2]; 290.63 K, Crystal): 0.002681 ± 0.00015 kPa | vapor or sublimation pressure ([2]; 290.65 K, Crystal): 0.002682 ± 0.00015 kPa | vapor or sublimation pressure ([2]; 293.12 K, Liquid): 0.00357 ± 0.00017 kPa | vapor or sublimation pressure ([2]; 293.13 K, Liquid): 0.003566 ± 0.00017 kPa | vapor or sublimation pressure ([2]; 298.15 K, Liquid): 0.005628 ± 0.00024 kPa and 0.005601 ± 0.00024 kPa | vapor or sublimation pressure ([2]; 303.15 K, Liquid): 0.008522 ± 0.00035 kPa and 0.008506 ± 0.00035 kPa | vapor or sublimation pressure ([2]; 308.08 K, Liquid): 0.0128 ± 0.00051 kPa | vapor or sublimation pressure ([2]; 308.11 K, Liquid): 0.01279 ± 0.00051 kPa | vapor or sublimation pressure ([2]; 313.12 K, Liquid): 0.01919 ± 0.00061 kPa | vapor or sublimation pressure ([2]; 313.13 K, Liquid): 0.01916 ± 0.00061 kPa | vapor or sublimation pressure ([2]; 318.09 K, Liquid): 0.02771 ± 0.00074 kPa and 0.02763 ± 0.00074 kPa | vapor or sublimation pressure ([2]; 323.05 K, Liquid): 0.03968 ± 0.00092 kPa | vapor or sublimation pressure ([2]; 328.04 K, Liquid): 0.05628 ± 0.0012 kPa and 0.05632 ± 0.0012 kPa | vapor or sublimation pressure ([2]; 333.01 K, Liquid): 0.0787 ± 0.0015 kPa | vapor or sublimation pressure ([2]; 333.02 K, Liquid): 0.07876 ± 0.0015 kPa | vapor or sublimation pressure ([2]; 337.99 K, Liquid): 0.1088 ± 0.002 kPa | vapor or sublimation pressure ([2]; 340.47 K, Liquid): 0.127 ± 0.0023 kPa | Normal melting temperature ([2]; Crystal): 16.1 ± 0.5 °C

COC(=O)c1ccncc1 [methyl 4-pyridinecarboxylate]
Molar enthalpy of transition or fusion [1]: 14.6 ± 0.7 kJ/mol | vapor or sublimation pressure ([2]; 273.26 K, Liquid): 0.002588 ± 0.00014 kPa | vapor or sublimation pressure ([2]; 275.74 K, Liquid): 0.003349 ± 0.00016 kPa and 0.003323 ± 0.00016 kPa | vapor or sublimation pressure ([2]; 278.22 K, Liquid): 0.004243 ± 0.00019 kPa | vapor or sublimation pressure ([2]; 278.23 K, Liquid): 0.004253 ± 0.00019 kPa | vapor or sublimation pressure ([2]; 280.71 K, Liquid): 0.005373 ± 0.00023 kPa and 0.005383 ± 0.00023 kPa | vapor or sublimation pressure ([2]; 283.19 K, Liquid): 0.006753 ± 0.00028 kPa | vapor or sublimation pressure ([2]; 285.66 K, Liquid): 0.008443 ± 0.00034 kPa | vapor or sublimation pressure ([2]; 288.16 K, Liquid): 0.01054 ± 0.00042 kPa | vapor or sublimation pressure ([2]; 290.65 K, Liquid): 0.01308 ± 0.00051 kPa | vapor or sublimation pressure ([2]; 293.15 K, Liquid): 0.01615 ± 0.00056 kPa | vapor or sublimation pressure ([2]; 293.16 K, Liquid): 0.01617 ± 0.00056 kPa | vapor or sublimation pressure ([2]; 295.65 K, Liquid): 0.0199 ± 0.00062 kPa | vapor or sublimation pressure ([2]; 298.13 K, Liquid): 0.02427 ± 0.00069 kPa | vapor or sublimation pressure ([2]; 298.14 K, Liquid): 0.02428 ± 0.00069 kPa | vapor or sublimation pressure ([2]; 300.63 K, Liquid): 0.0296 ± 0.00077 kPa and 0.02961 ± 0.00077 kPa | vapor or sublimation pressure ([2]; 303.12 K, Liquid): 0.03595 ± 0.00087 kPa | vapor or sublimation pressure ([2]; 303.13 K, Liquid): 0.03597 ± 0.00087 kPa | vapor or sublimation pressure ([2]; 305.62 K, Liquid): 0.04347 ± 0.00098 kPa | vapor or sublimation pressure ([2]; 305.63 K, Liquid): 0.04348 ± 0.00098 kPa | vapor or sublimation pressure ([2]; 308.09 K, Liquid): 0.05219 ± 0.0011 kPa | vapor or sublimation pressure ([2]; 310.59 K, Liquid): 0.06266 ± 0.0013 kPa | vapor or sublimation pressure ([2]; 310.6 K, Liquid): 0.0627 ± 0.0013 kPa | vapor or sublimation pressure ([2]; 313.07 K, Liquid): 0.07495 ± 0.0015 kPa and 0.0749 ± 0.0015 kPa | vapor or sublimation pressure ([2]; 315.54 K, Liquid): 0.08924 ± 0.0017 kPa | vapor or sublimation pressure ([2]; 315.56 K, Liquid): 0.08934 ± 0.0017 kPa | vapor or sublimation pressure ([2]; 318.03 K, Liquid): 0.1062 ± 0.002 kPa | vapor or sublimation pressure ([2]; 320.52 K, Liquid): 0.1256 ± 0.0023 kPa | Normal melting temperature ([2]; Crystal): 10.2 ± 0.9 °C

Reference: the NIST ThermoML archive (doi:10.1021/je060472e)
